{"source": "patent US20050084916A1", "about": "“Identification of the IkappaBNS protein and its products” (priority 2001, published 2005)", "molecules": {"B1": {"name": "IκBNS: novel 327 amino acid IκB family protein with 7 ankyrin domains (SEQ ID NO: 4); expressed from Flag-tagged pcDNA3.1 construct (protein)", "chain": "MEDSLDTRLYPEPSLSQVGSWRVSSLPSGSPQLPSPTGPSLETARAHILALGPQQLLAQMEDDTYSLQGWRVSPSGPQPGPSLEARAHLALGPQQLLAQDEEGDTLLHLFAARGLRWAAYAAAEVLQMYRQLDIREHKGKTPLLVAAAANQPLIVEDLLDEEGDTLLHLFAARGLRWAAYAAAEVLQYRLDIREHKGKTPLLVAAAANQPLIVEDLLSLGAEPNATDHQGRSVLHVAATYGLPGVLSAVFKSGIQVDLEARDFEGLTPLHTAVLALNLGAEPNADHQGRSVLHVAATYGLPGVLAVSGQVDLEARDFEGLTPLHTALALNAAMLPASVCPRMQNSQARDRLTCVQMLLQMGASHTSQEIKSNKTILHLAVQAANPTLVQLAMPCPRQARDRLCVMLLQMGAHTSQEIKSNKTLHLAVQAANPTLVQLLLGLPRGDLRAFVNMKAHGNTALHMAAALPPGPPQEAIVRHLLAAGADPTLRNLENEQPVLLLPRGDLRFVNMKAHGNTALHMAAALPPGPQEAIVRHLLAAGADPTLRNLEGEQPVHLLRPGGPEGLRQLLKRSRTAPPGLSSHLLRPGGPEGLRQLLKRSRAPPGLSS", "modifications": "Flag tag; mouse", "notes": "expressed from Flag-tagged pcDNA3.1 construct"}}, "key": {"IκBNS mRNA": {"system": "IκBNS mRNA", "assay_type": "cell-based, mouse"}, "[1]": {"system": "thymocytes in N15tg RAG-2−/− H-2b FTOC", "settings": "cited from earlier work"}, "NF-κB [2]": {"system": "NF-κB", "test": "NF-κB luciferase reporter assay in transfected Cos-7 cells", "assay_type": "cell-based"}, "NF-κB [3]": {"system": "NF-κB", "test": "NF-κB-sensitive reporter constructs in transiently transfected Jurkat T cells", "assay_type": "cell-based"}}, "data": [{"molecule": "CC(C)C[C@H](N)C(=O)O", "note": "[L4]", "values": [{"measurement": "IκBNS mRNA induction", "setting": "IκBNS mRNA", "value": "do not upregulate"}, {"measurement": "thymic selection outcome", "setting": "[1]", "value": "positive selection"}]}, {"molecule": "CCCCCCCCCCCCCC(=O)O[C@@H]1[C@@H](C)[C@@]2(O)[C@@H](C=C(CO)C[C@]3(O)C(=O)C(C)=C[C@@H]23)[C@@H]2C(C)(C)[C@]12OC(C)=O", "note": "[PMA, phorbol-12-myristate-13-acetate]", "values": [{"measurement": "increase in NF-κB luciferase activity relative to untreated cells", "setting": "NF-κB [2]; 50 ng/ml for 7 h", "value": "5-10 fold"}]}, {"molecule": "B1", "values": [{"measurement": "effect of cotransfection on PMA-induced NF-κB-driven luciferase activity", "setting": "NF-κB [2]; 10 μg construct, PMA 50 ng/ml 7 h", "value": "reduced NF-κB-driven luciferase activity to a level approaching that of cells transfected with the vector only"}, {"measurement": "activity of NF-κB-sensitive reporter constructs", "setting": "NF-κB [3]", "value": "reduced the activity"}]}]}
